Drawing on publication PMC4828684 (ACS Infectious Diseases, 2016), this text covers IC50, Ki and Km for two compounds.

Test [1] deals with T1, human ACCS2 (ACSS2, acetyl CoA synthetase) (Homo sapiens, UniProt Q9NR19). Description: biochemical.
Test [2] addresses T2, S. cerevisiae Acs1 (acetyl CoA synthetase) (Saccharomyces cerevisiae, UniProt Q01574).
T2 sequence (Q01574 1-713): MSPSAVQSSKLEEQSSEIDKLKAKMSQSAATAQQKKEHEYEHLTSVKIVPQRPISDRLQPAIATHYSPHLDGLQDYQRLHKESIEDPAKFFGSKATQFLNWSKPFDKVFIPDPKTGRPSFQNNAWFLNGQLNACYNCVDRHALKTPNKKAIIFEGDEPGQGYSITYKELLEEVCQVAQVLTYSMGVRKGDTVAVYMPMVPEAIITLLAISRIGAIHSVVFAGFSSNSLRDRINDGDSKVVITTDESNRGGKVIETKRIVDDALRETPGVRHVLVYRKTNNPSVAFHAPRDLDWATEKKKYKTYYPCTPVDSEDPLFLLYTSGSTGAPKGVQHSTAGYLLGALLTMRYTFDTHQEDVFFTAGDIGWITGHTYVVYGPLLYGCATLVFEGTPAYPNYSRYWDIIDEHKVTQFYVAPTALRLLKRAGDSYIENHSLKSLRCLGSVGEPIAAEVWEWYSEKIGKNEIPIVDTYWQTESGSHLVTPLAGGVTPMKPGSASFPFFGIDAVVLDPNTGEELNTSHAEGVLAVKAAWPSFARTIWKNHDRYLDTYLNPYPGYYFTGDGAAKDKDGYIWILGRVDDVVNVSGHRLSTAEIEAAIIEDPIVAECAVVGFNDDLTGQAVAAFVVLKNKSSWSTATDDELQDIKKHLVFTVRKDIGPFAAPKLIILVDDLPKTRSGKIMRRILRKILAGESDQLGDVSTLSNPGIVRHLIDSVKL
Kind of test: hydroxylamine-coupled. Format: biochemical.

Test [3] deals with T2, S. cerevisiae Acs1 (acetyl CoA synthetase). Description: Km determination in hydroxamic acid enzyme assay. It is filed as biochemical.
The target in test [4] is T1, human ACCS2 (ACSS2, acetyl CoA synthetase).

pIC50, pKi: −log10 of the molar value.

T1 sequence (Q9NR19 whole entry): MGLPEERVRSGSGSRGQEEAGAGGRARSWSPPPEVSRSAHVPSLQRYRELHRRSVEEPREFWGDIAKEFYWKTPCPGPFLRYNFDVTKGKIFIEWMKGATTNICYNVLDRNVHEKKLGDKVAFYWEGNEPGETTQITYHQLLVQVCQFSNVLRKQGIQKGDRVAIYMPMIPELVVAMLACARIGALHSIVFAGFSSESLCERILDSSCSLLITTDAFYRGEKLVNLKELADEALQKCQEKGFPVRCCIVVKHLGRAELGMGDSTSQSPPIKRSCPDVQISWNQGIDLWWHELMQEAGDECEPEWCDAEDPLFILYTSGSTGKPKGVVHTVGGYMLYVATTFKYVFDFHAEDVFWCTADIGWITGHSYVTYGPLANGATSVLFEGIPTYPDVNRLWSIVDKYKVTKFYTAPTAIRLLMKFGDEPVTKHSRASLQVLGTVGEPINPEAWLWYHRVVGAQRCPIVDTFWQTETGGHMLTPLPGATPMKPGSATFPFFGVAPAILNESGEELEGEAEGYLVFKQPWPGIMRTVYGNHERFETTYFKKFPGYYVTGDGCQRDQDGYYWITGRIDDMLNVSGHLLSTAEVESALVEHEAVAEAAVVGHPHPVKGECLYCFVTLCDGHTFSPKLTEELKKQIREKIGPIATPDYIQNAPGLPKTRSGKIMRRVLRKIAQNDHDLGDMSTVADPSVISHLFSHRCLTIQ

For orientation: pIC50 means the IC50 on a negative log10 scale, so that one unit is a factor of ten. Low values mean a large IC50, high ones a small IC50. A word on the pKi: it is the Ki on a negative log10 scale, so that one unit is a factor of ten. In turn, `NCC(=O)Nc1ccc(-n2nc(C(F)(F)F)cc2-c2ccc3c(ccc4ccccc43)c2)cc1` [AR-12] showed a pIC50 in test [1] above 4.00. This compound also gave a pKi in test [2] of around 5.57.
By Km is commonly meant the substrate concentration at which the rate is half of its maximum. For the compound `Nc1ncnc2c1ncn2[C@@H]1O[C@H](COP(=O)(O)OP(=O)(O)OP(=O)(O)O)[C@@H](O)[C@H]1O` [ATP], the Km in test [3] and in test [4] was 900 to 1000 µM throughout.
